For experiment [1], the system named is Leishmania donovani. In words: The in vitro leishmanicidal activity by measuring the 3H thymidine incorporation in promastigotes of Leishmania donovani at 200 uM concentration. Type of experiment: functional.
Experiment [2] deals with Leishmania donovani. Description: The in vitro leishmanicidal activity by measuring the 3H thymidine incorporation in promastigotes of Leishmania donovani. Type of experiment: functional, organism-based.
For experiment [3], the system named is Leishmania donovani. In words: The in vitro leishmanicidal activity by measuring the 3H thymidine incorporation in promastigotes of Leishmania donovani at 100 uM concentration. Type of experiment: functional.

This is an account of results in ChEMBL document CHEMBL1129912, “Functionalized azoles and triazolo[1,5-a]pyrimidines as latent leishmanicides” (Bioorg Med Chem Lett, 1997).

`Cc1cc(O)n2nc(NS(=O)(=O)c3ccc(Cl)cc3)nc2n1`: in the experiment with Leishmania donovani [1], the Growth inhibition was 5%.
In the experiment with Leishmania donovani [1], `Nc1n[nH]c(NS(=O)(=O)c2ccccc2)n1` yielded a Growth inhibition of 97%. Further, the half-maximal inhibitory concentration (IC50) in the experiment with Leishmania donovani [2] turned out to be 2 µM.
In the experiment with Leishmania donovani [1], `O=S(=O)(Nc1nc2nc3c(c(O)n2n1)CCC3)c1ccc(Cl)cc1` showed a Growth inhibition of 15%.
As for `N#Cc1cnc2nc(NS(=O)(=O)c3ccc(Cl)cc3)nn2c1N`, the Growth inhibition with Leishmania donovani [1] was determined as 0%.
Turning to `O=S(=O)(Nc1nc2nc(-c3ccccc3)cc(-c3ccccc3)n2n1)c1ccc(Cl)cc1`, the Growth inhibition in the experiment with Leishmania donovani [1] came to 98%. In the experiment with Leishmania donovani [2], the IC50 is 2 µM.
The corresponding values for `Cc1ccc2nc(NS(=O)(=O)c3ccc(N)cc3)oc2c1` are 92.6% and 15.5 µM.
Taken in the same sequence, the figures for `Cc1ccc(S(=O)(=O)Nc2nc3nc(C)cc(C)n3n2)cc1` were 100% and 1.5 µM.
Take `Nc1ccc(S(=O)(=O)Nc2nc3ccccc3o2)cc1`: the Growth inhibition in the experiment with Leishmania donovani [1] is given as 74%. In the experiment with Leishmania donovani [2], this compound came in with an IC50 of 6.4 µM.
The corresponding values for `Nc1ccc(S(=O)(=O)Nc2nc3ccccc3[nH]2)cc1` are 80% and 10.5 µM.
As for `CCOC(=O)c1cnc2nc(NS(=O)(=O)c3ccc(Cl)cc3)nn2c1O`, the Growth inhibition in the experiment on Leishmania donovani [1] came to 0%.
The same measure, in the same setting: in the case of `CCOC(=O)c1cnc2nc(NS(=O)(=O)c3ccc(Cl)cc3)nn2c1N` it was 0%.
For the compound `Cc1ccc(S(=O)(=O)Nc2nc3nc(-c4ccccc4)cc(O)n3n2)cc1`, in the experiment with Leishmania donovani [1], the Growth inhibition is given as 100%. The compound also showed an IC50 with Leishmania donovani [2] of 2 µM.
Consider `CSc1nc2nc(NS(=O)(=O)c3ccc(Cl)cc3)nn2c(N)c1C#N`, for which the Growth inhibition in the experiment with Leishmania donovani [1] was found to be 17%.
Take `Cc1cc(C)n2nc(NS(=O)(=O)c3ccc(Cl)cc3)nc2n1`: the Growth inhibition in the experiment on Leishmania donovani [1] worked out at 3%.
`N=C(N)c1ccc(OCCCCCOc2ccc(C(=N)N)cc2)cc1` [PENTAMIDINE] came in with a Growth inhibition in the experiment on Leishmania donovani [3] of 100%. The IC50 with Leishmania donovani [2] was 0.76 µM.
